Experiment in all cases: DTP human tumour cell line panel, 48 h
Test [1] deals with ACHN.
In test [2] the test system is CAKI-1.
The subject of test [3] is EKVX.
Test [4] has as its system HCC 2998.
The test system of test [5] is HCT-15.
The test system of test [6] is HL-60.
Test [7] has as its system HT-29.
The subject of test [8] is KM12.
Test [9] relates to LOX IMVI.
The subject of test [10] is M14.
Test [11] deals with NCI-H460.
Test [12] concerns OVCAR-3.
The subject of test [13] is OVCAR-5.
Test [14] has as its system PC-3.
The subject of test [15] is RXF 393.
The test system of test [16] is SK-MEL-2.
The subject of test [17] is SNB-75.
For test [18], the system named is SR.
The test system of test [19] is UACC-257.

This note sets out measurements from ChEMBL document CHEMBL1201862, “PubChem BioAssay data set” (2004).

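Cells were grown in 96-well plates and exposed to each compound for 48 hours at five concentrations; endpoints were interpolated linearly between bracketing concentrations, or set to the highest concentration if not reached. GI50 = concentration required for 50% inhibition of growth.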 Active and inactive are the calls of the source. Cut-off read from the data, not from the text of the source: active = GI50 up to about 1.1 µM and inactive = higher.

Regarding `Cc1ccc(NC(=S)N/N=C2\C(=O)Nc3ccccc32)cc1`, the GI50 (commonly the concentration that inhibits growth by half) is 61.5 µM (inactive) in test [1]; > 100 µM (inactive) in [2]; 75.9 µM (inactive) in test [3]; > 100 µM (inactive) in test [4]; more than 100 µM in [5]; > 100 µM (inactive) in test [6]. The GI50 in test [7] was > 100 µM (inactive); in test [8], > 100 µM (inactive); in [9], 66.5 µM (inactive); in test [10], 94 µM (inactive); in test [11], 83 µM (inactive); in test [12], > 100 µM (inactive). In addition, the GI50 in [13] was > 100 µM (inactive); in [14] it was > 100 µM (inactive); in [15], 84.7 µM (inactive); in test [16] it was 97.7 µM (inactive); in test [17], > 100 µM (inactive); in [18], 87.7 µM (inactive). Moreover, the GI50 in test [19] is > 100 µM (inactive).
Consider `Cc1ccnc2c1ccc1nc3ccccc3n12`, for which the GI50 was 11.4 µM (inactive) in test [2]; 1.88 µM (inactive) in [3]; > 100 µM (inactive) in [4]; 85.3 µM (inactive) in [6]; 77.4 µM (inactive) in test [7]; 22 µM (inactive) in [8]. For the same molecule, the GI50 in [9] is > 100 µM (inactive); in test [10] it was > 100 µM (inactive); in [11] it was 45.6 µM (inactive); in test [12], > 100 µM (inactive); in test [13], > 100 µM (inactive); in test [14], > 100 µM (inactive). Besides, the GI50 in test [15] is 56.2 µM (inactive); in test [16], > 100 µM (inactive); in [17], 31.7 µM (inactive); in test [18], 44.7 µM (inactive); in [19], > 100 µM (inactive).
Take `Cc1n[nH]c(=O)n1C1CC1`: the GI50 in test [1] was > 100 µM (inactive); in [2], > 100 µM (inactive); in [3] it was > 100 µM (inactive); in test [4] it was > 100 µM (inactive); in test [5], more than 100 µM; in test [6] it was > 100 µM (inactive). Moreover, the GI50 in [7], in [8], in test [9], in test [10], in [11] and in test [12] was > 100 µM (inactive) each time. For the same molecule, the GI50 in test [13] is > 100 µM (inactive); in [14], > 100 µM (inactive); in test [15] it was > 100 µM (inactive); in [17] it was 42.7 µM (inactive); in test [18], > 100 µM (inactive); in test [19], > 100 µM (inactive).
As for `C[C@@H](c1ccccc1)N(CC#N)[C@H]1CCC[C@]1(O)/C=C/c1ccc2c(c1)OCO2`, the GI50 was 4.31 µM (inactive) in test [1]; > 25 µM (inactive) in test [2]; > 25 µM (inactive) in [3]; > 25 µM (inactive) in test [4]; more than 25 µM in test [5]; > 25 µM (inactive) in [6]. For the same molecule, the GI50 in [7], in test [8], in test [9], in test [10], in [11] and in [13] was > 25 µM (inactive) each time. Also, the GI50 in [14], in test [15], in [16], in test [17], in [18] and in test [19] was > 25 µM (inactive) each time.
Take `CCc1c(Cc2cccc3ccccc23)n2c(nc1=O)SCC2OCCO` (configuration not stated): the GI50 in test [1] is > 100 µM (inactive); in test [2], > 100 µM (inactive); in [3] it was 33.7 µM (inactive); in test [4] it was 64.1 µM (inactive); in test [5], 43.5 µM; in [6], 36.9 µM (inactive). Moreover, the GI50 was 55.3 µM (inactive) in test [7]; 56.5 µM (inactive) in test [8]; 79.3 µM (inactive) in test [9]; > 100 µM (inactive) in test [10]; > 100 µM (inactive) in test [11]; > 100 µM (inactive) in [13]. In addition, the GI50 was 52.6 µM (inactive) in [14]; > 100 µM (inactive) in [15]; > 100 µM (inactive) in test [16]; > 100 µM (inactive) in [17]; 25.9 µM (inactive) in test [18]; > 100 µM (inactive) in test [19].
For `CS(=O)(=O)Nc1ccc2c(c1)N(S(C)(=O)=O)CC2COS(C)(=O)=O` (configuration not stated), the GI50 in test [1] is 35.7 µM (inactive); in test [2], 24.6 µM (inactive); in test [3], > 100 µM (inactive); in test [4] it was > 100 µM (inactive); in [5], more than 100 µM; in test [6] it was 25.2 µM (inactive). Besides, the GI50 in [7] is > 100 µM (inactive); in test [8], > 100 µM (inactive); in test [9], 70 µM (inactive); in [11], 90.8 µM (inactive); in test [12], 34.6 µM (inactive); in [13], 40.5 µM (inactive). In addition, the GI50 in [14] was > 100 µM (inactive); in test [15], 18.7 µM (inactive); in test [16], 19.9 µM (inactive); in test [17], 57.7 µM (inactive); in test [18] it was 23.3 µM (inactive); in test [19], > 100 µM (inactive).
Consider `C=C(c1ccccc1)C1ON(C)CCc2cc(OC)c(OC)cc21` (configuration not stated), for which the GI50 is 84.7 µM (inactive) in [1]; > 100 µM (inactive) in [2]; > 100 µM (inactive) in [3]; > 100 µM (inactive) in test [4]; 68.1 µM in test [5]; > 100 µM (inactive) in [6]. The GI50 in [7] is 75.3 µM (inactive); in test [8], > 100 µM (inactive); in test [9], 26.2 µM (inactive); in test [10], > 100 µM (inactive); in test [11], > 100 µM (inactive); in test [12] it was > 100 µM (inactive). For the same molecule, the GI50 was > 100 µM (inactive) in test [13]; > 100 µM (inactive) in test [14]; > 100 µM (inactive) in test [15]; > 100 µM (inactive) in [17]; 88.7 µM (inactive) in test [18]; 42.3 µM (inactive) in [19].
As to `CCCCCCCCCCCCC/C=C(/COCC[N+](C)(C)C)OC(C)=O.CCCCCCCCCCCCCC/C(=C/OCC[N+](C)(C)C)OC(C)=O`, the GI50 is 1.65 µM (inactive) in [1]; 1.58 µM (inactive) in test [2]; 3.1 µM (inactive) in [3]; 4.04 µM (inactive) in [4]; 3.43 µM in test [5]; 1.64 µM (inactive) in test [6]. In addition, the GI50 was 0.356 µM (active) in test [7]; 1.46 µM (inactive) in test [8]; 0.377 µM (active) in test [9]; 2.5 µM (inactive) in test [10]; 0.63 µM (active) in [11]; 1.61 µM (inactive) in [12]. Besides, the GI50 in [13] is 2.44 µM (inactive); in test [14] it was 2.08 µM (inactive); in [15], 0.716 µM (active); in test [17] it was 2.54 µM (inactive); in [18], 1.57 µM (inactive); in [19], 2.99 µM (inactive).
As for `O=c1[nH]c(Nc2nc3ccccc3[nH]2)nc2c1CCC2`, the GI50 was > 100 µM (inactive) in test [1]; > 100 µM (inactive) in test [2]; > 100 µM (inactive) in test [4]; more than 100 µM in test [5]; > 100 µM (inactive) in test [6]; > 100 µM (inactive) in [7]. Also, the GI50 in test [9], in [10], in test [11], in test [12], in [13] and in test [14] was > 100 µM (inactive) throughout. Moreover, the GI50 in test [15] is 96.4 µM (inactive); in test [16], > 100 µM (inactive); in [17], 30 µM (inactive); in test [18] it was 28 µM (inactive); in test [19], > 100 µM (inactive).
Regarding `CCCCCCCCCCCC1=C(O)C(=O)C(CC2=C(O)C(=O)C(CCCCCCCCCCC)=C(O)C2=O)=C(O)C1=O`, the GI50 was 76 µM (inactive) in [1]; 60.5 µM (inactive) in test [2]; > 100 µM (inactive) in test [3]; > 100 µM (inactive) in [4]; more than 100 µM in test [5]; > 10 µM (inactive) in [6]. Also, the GI50 in [7], in test [8], in test [9], in [10], in test [11] and in [13] was > 100 µM (inactive) throughout. Further, the GI50 in test [14] is > 100 µM (inactive); in [15] it was 3.19 µM (inactive); in test [16], > 100 µM (inactive); in test [17], 14.9 µM (inactive); in test [18], 19.2 µM (inactive); in test [19], > 100 µM (inactive).
As to `c1ccc2c(c1)-c1ccccc1C2NC1=NCCO1`, the GI50 in test [1] was 28.8 µM (inactive); in test [2] it was 28.5 µM (inactive); in test [3], 40.6 µM (inactive); in test [4] it was 15.6 µM (inactive); in test [5], 9.4 µM; in test [6], 26.5 µM (inactive). Further, the GI50 in [7] is 21.7 µM (inactive); in [8], 14.2 µM (inactive); in test [9], 20.5 µM (inactive); in [10], 17.2 µM (inactive); in test [11], 14 µM (inactive); in test [12], 23.1 µM (inactive). For the same molecule, the GI50 is 38.8 µM (inactive) in test [13]; 20.5 µM (inactive) in test [14]; 42.2 µM (inactive) in test [15]; 18.8 µM (inactive) in test [16]; 15.4 µM (inactive) in [17]; 30.3 µM (inactive) in test [18].
